# Assay results from patent publication US20120276196A1, “Pharmaceutical Compositions of a Neuroactive Steroid and Methods of Use Thereof” (Euro-Celtique S.A., priority 2005, published 2012).
# How the values were obtained:
# [1] = clinical; conditions: male, human, in vivo
# [2] = escalating single-dose, randomized, double blind, placebo-controlled pharmacokinetic study, oral suspension, healthy male subjects; conditions: human, plasma
# [3] = human, in vivo, po
structure (smiles),measurement,setting,value
COC[C@@]1(O)CC[C@]2(C)C3CC[C@@]4(C)C(CC[C@@H]4C(=O)Cn4ccnc4)C3CC[C@H]2C1 (stereo partly drawn) [3α-hydroxy-3β-methoxymethyl-21-(1′-imidazolyl)-5α-pregnan-20-one],Tmax,[1],1.5 to 5 h
same,Cmax,[1]; 1 mg,1 to 1.8 ng/mL
same,Cmax,[1]; 3 mg,4 to 8 ng/mL
same,Cmax,[1]; 10 mg,16.9 to 46.3 ng/mL
same,Cmax,[1]; 30 mg,95.6 to 154 ng/mL
same,Cmax,[1]; 60 mg,218 to 479 ng/mL
same,Tmax,[1]; po,1 to 3 h
same,half-life,[1]; po,~12 h
same,Cmax,"[1]; po, 1 mg",1.3 ng/mL
same,Tmax,"[1]; po, 1 mg",3.1 h
same,AUC(0-t),"[1]; po, 1 mg, AUC (0-24)",16.9 ng·h/mL
same,AUC(0-t),"[1]; po, 1 mg, AUC (0-last)",22.4 ng·h/mL
same,Cmax,"[1]; po, 3 mg",5.7 ng/mL
same,Tmax,"[1]; po, 3 mg",2.8 h
same,half-life,"[1]; po, 3 mg",8.8 h
same,AUC(0-t),"[1]; po, 3 mg, AUC (0-24)",54.6 ng·h/mL
same,AUC(0-t),"[1]; po, 3 mg, AUC (0-last)",65.6 ng·h/mL
same,Cmax,"[1]; po, 10 mg",26.5 ng/mL
same,Tmax,"[1]; po, 10 mg",1.7 h
same,AUC(0-t),"[1]; po, 10 mg, AUC (0-24)",213 ng·h/mL
same,AUC(0-t),"[1]; po, 10 mg, AUC (0-last)",254 ng·h/mL
same,Cmax,"[1]; po, 30 mg",120 ng/mL
same,Tmax,"[1]; po, 30 mg",2.1 h
same,AUC(0-t),"[1]; po, 30 mg, AUC (0-24)",952 ng·h/mL
same,AUC(0-t),"[1]; po, 30 mg, AUC (0-last)",1120 ng·h/mL
same,Cmax,"[1]; po, 60 mg",330 ng/mL
same,Tmax,"[1]; po, 60 mg",1.8 h
same,AUC(0-t),"[1]; po, 60 mg, AUC (0-24)",2330 ng·h/mL
same,AUC(0-t),"[1]; po, 60 mg, AUC (0-last)",2610 ng·h/mL
same,half-life,[2]; 1 mg,13.8 h
same,half-life,[2]; 10 mg,13.1 h
same,half-life,[2]; 30 mg,13.1 h
same,half-life,[2]; 60 mg,12.5 h
same,Cmax levels between subjects,[3],variable
same,Cmax values versus dose,[3],greater than dose-proportional
